Source: patent US20070196407A1, “Alkoxyphenylcarboxylic acid derivatives” (priority 2004, published 2007)
“And” between values parts separate entries of the source, which are not always exact repeats. Equal values may be shown once.

Legend:
S. mutans ATCC33402 = assay: MIC against oral organisms in the serial dilution test; type: cell-based, Streptococcus mutans; conditions: thioglycolate broth, 24 h aerobic with 10% CO2, unit not given, stock solutions in ppm (w/w)
Excerpt: (§1) Determination of the MIC Against Various Oral Organisms in the Serial Dilution Test
(§2) Medium: Thioglycolate broth with hemin and menadione • Columbia broth with hemin and menadione for P. gingivalis and P. nigrescens
(§3) Dilution medium: The appropriate amount of the substances was pipetted directly onto the medium.
(§4) Test organisms: Actinobacillus actinomycetemcomitans ATCC 43718 • Streptococcus gordonii ATCC 10558 • Streptococcus mutans ATCC 33402 • Actinomyces viscosus ATCC 43146 • Fusobacterium nucleatum subsp. polymorphum ATCC 10953 • Porphyromonas gingivalis ATCC 33277 • Prevotella nigrescens ATCC 33563
(§5) Incubation: 7-10 days at 37° C. anaerobic, or 24 h aerobic with 10% CO2for Streptococci and A. actinomycetemcomitans
(§6) Test solution: Stock solutions of all the test substances in ethanol comprising 1500 ppm (w/w) are used.
(§7) Bacteria are removed from blood agar plates using cotton-wool-tipped sticks and a suitable O.D. is established in the appropriate medium (McFarland 0.5); this solution is used undiluted for F. nucleatum and P. nigrescens and diluted 1:20 for the other strains. 0.1 ml of bacteria culture is added to 2 ml of each of the active substance solutions, and incubation is carried out as described above.

P. gingivalis ATCC3277 = assay: as above; type: cell-based, Porphyromonas gingivalis; conditions: Columbia broth with hemin and menadione, 7-10 days at 37° C. anaerobic, unit not given, stock solutions in ppm (w/w)
Excerpt: as §1, §2, §3, §4, §5, §6, §7

[1] = system: A. actinomycetemcomitans ATCC43718; assay: as above; type: cell-based, Actinobacillus actinomycetemcomitans; conditions: thioglycolate broth, 24 h aerobic with 10% CO2, unit not given, stock solutions in ppm (w/w)
Excerpt: as §1, §2, §3, §4, §5, §6, §7

[2] = system: Klebsiella pneumoniae ATCC 4352; assay: MIC in the agar incorporation test; type: cell-based; conditions: unit not given, method gives agar concentrations in ppm
Experimental: (§8) Test solution: 1% stock solutions of all the test substances are prepared in a suitable solvent and diluted in serial dilutions as far as possible so that final concentrations of from 500 ppm to 10 ppm are obtained in the agar. Test principle: 0.3 ml of the particular dilution stage is mixed with 15 ml of still liquid nutrient medium. After solidification of the nutrient base, 10 μl of the test strains in a suitable organism dilution in 0.85% NaCl solution are applied point-wise to the agar medium: [table]

[3] = system: Propionibacterium acnes ATCC 6919; assay: MIC in the agar incorporation test; type: cell-based; conditions: unit not given, method gives agar concentrations in ppm
Experimental: as §8

[4] = system: Proteus vulgaris ATCC 6896; assay: MIC in the agar incorporation test; type: cell-based; conditions: unit not given, method gives agar concentrations in ppm
Experimental: as §8

[5] = system: Escherichia coli NCTC 8196; assay: MIC in the agar incorporation test; type: cell-based; conditions: 24 hours at 37° C., unit not given, method gives agar concentrations in ppm
Experimental: as §8

[6] = system: Staphylococcus aureus ATCC 6538; assay: MIC in the agar incorporation test; type: cell-based; conditions: 24 hours at 37° C., unit not given, method gives agar concentrations in ppm
Experimental: as §8

[7] = system: Corynebacterium minutissimum ATCC 23348; assay: MIC in the agar incorporation test; type: cell-based; conditions: unit not given, method gives agar concentrations in ppm
Experimental: as §8

[8] = system: Staphylococcus aureus ATCC 9144; assay: MIC in the agar incorporation test; type: cell-based; conditions: 24 hours at 37° C., unit not given, method gives agar concentrations in ppm
Experimental: as §8

[9] = system: Aspergillus niger ATCC 6275; assay: MIC in the agar incorporation test; type: cell-based; conditions: Sabouraud 4% glucose agar, 3 days at 28° C., unit not given, method gives agar concentrations in ppm
Experimental: as §8

[10] = system: Escherichia coli ATCC 10536; assay: MIC in the agar incorporation test; type: cell-based; conditions: 24 hours at 37° C., unit not given, method gives agar concentrations in ppm
Experimental: as §8

[11] = system: Candida albicans ATCC 10231; assay: MIC in the agar incorporation test; type: cell-based; conditions: Sabouraud 4% glucose agar, 3 days at 28° C., unit not given, method gives agar concentrations in ppm
Experimental: as §8

[12] = system: Staphylococcus epidermidis ATCC 12228; assay: MIC in the agar incorporation test; type: cell-based; conditions: unit not given, method gives agar concentrations in ppm
Experimental: as §8

[13] = system: Pseudomonas aeruginosa ATCC 15442; assay: MIC in the agar incorporation test; type: cell-based; conditions: 24 hours at 37° C., unit not given, method gives agar concentrations in ppm
Experimental: as §8

[14] = system: Salmonella choleraesuis ATCC 9184; assay: MIC in the agar incorporation test; type: cell-based; conditions: unit not given, method gives agar concentrations in ppm
Experimental: as §8

S. gordonii ATCC10558 = assay: MIC against oral organisms in the serial dilution test; type: cell-based, Streptococcus gordonii; conditions: thioglycolate broth, 24 h aerobic with 10% CO2, unit not given, stock solutions in ppm (w/w)
Excerpt: as §1, §2, §3, §4, §5, §6, §7

[15] = system: Actinomyces viscosus ATCC 43146; assay: Substantivity on hydroxyapatite and growth-inhibiting action; type: cell-based; conditions: plates pretreated with synthetic saliva, incubated in ethanolic solution comprising 50 and 500 ppm; 24 hours at 37° C.; in comparison with an untreated control (FIGS. 1 and 2)
Experimental: Principle: apatite plates (dia. 10 mm) are placed in synthetic saliva (Deutsche Zahnärztliche Zeitschrift DZZ May 2002), rinsed in NaCl and then incubated in an ethanolic solution of test substances (II) and (III) comprising 50 and 500 ppm. The plates are then introduced into a Nunclon Surface titre plate (12 wells) and incubated for 24 hours at 37° C. in Caso nutrient medium which has been inoculated with Actinomyces viscosus ATCC 43146 (about 10^5/ml).

A. viscosus ATCC43146 = assay: MIC against oral organisms in the serial dilution test; type: cell-based, Actinomyces viscosus; conditions: thioglycolate broth, 7-10 days at 37° C. anaerobic, unit not given, stock solutions in ppm (w/w)
Excerpt: as §1, §2, §3, §4, §5, §6, §7

[16] = system: F. nucleatum subsp. polymorphum ATCC10953; assay: as above; type: cell-based, Fusobacterium nucleatum subsp. polymorphum; conditions: thioglycolate broth, 7-10 days at 37° C. anaerobic, unit not given, stock solutions in ppm (w/w)
Excerpt: as §1, §2, §3, §4, §5, §6, §7

P. nigrescens ATCC33563 = assay: as above; type: cell-based, Prevotella nigrescens; conditions: Columbia broth with hemin and menadione, 7-10 days at 37° C. anaerobic, unit not given, stock solutions in ppm (w/w)
Excerpt: as §1, §2, §3, §4, §5, §6, §7

[17] = system: biofilm of a defined mixed culture of gram+ and gram− oral organisms and a yeast (Candida albicans) on hydroxyapatite discs; assay: Activity in the biofilm model (in vitro supragingival plaque); type: cell-based; conditions: 0.5% substance (II) in mouthwash formulation
Excerpt: Test of the Activity of 2-dodecyloxy-benzoic Acid (II) in the Biofilm Model
Principle: see Guggenheim et a/. (2001), “Validation of an in vitro biofilm model of supragingival plaque”, J. Dent Res. 80 (1)
Hydroxyapatite discs are pretreated with human saliva and a biofilm of a defined mixed culture of various gram+ and gram− oral organisms (Streptococci, Actinomyces sp., Veillonella & Fusobacterium sp. & others) and a yeast (Candida albicans) are allowed to grow on the hydroxyapatite. During the test period of 4 days, the discs are immersed, several times in all, in the below given application formulation of the substance (II),
and at the end the biofilm is harvested and the number of living cells is determined.

Structure (SMILES)	MIC (S. mutans ATCC33402)	MIC (P. gingivalis ATCC3277)	MIC [1]	Minimum Inhibitory Concentration (MIC) [2]	Minimum Inhibitory Concentration (MIC) [3]	Minimum Inhibitory Concentration (MIC) [4]	Minimum Inhibitory Concentration (MIC) [5]	Minimum Inhibitory Concentration (MIC) [6]	Minimum Inhibitory Concentration (MIC) [7]	Minimum Inhibitory Concentration (MIC) [8]	Minimum Inhibitory Concentration (MIC) [9]	Minimum Inhibitory Concentration (MIC) [10]	Minimum Inhibitory Concentration (MIC) [11]	Minimum Inhibitory Concentration (MIC) [12]	Minimum Inhibitory Concentration (MIC) [13]	Minimum Inhibitory Concentration (MIC) [14]	MIC (S. gordonii ATCC10558)	growth of Actinomyces viscosus after adsorption of the substance onto hydroxyapatite plates [15]	MIC (A. viscosus ATCC43146)	MIC [16]	also measured
CCCCCCCCCCCCOc1ccccc1C(=O)O [II, 2-dodecyloxy-benzoic acid]	7.5	7.5	>15	>500	15.63	>500	>500	31.25	15.63	31.25	>500	>500	>500	15.63	>500	>500	15	inhibition of the growth	1.88	>15	MIC (P. nigrescens ATCC33563): >15; number of living cells of the harvested biofilm (mean values) ([17]; discs immersed several times during 4 days, two independent tests): 1.2 × 10^5 CFU/disc and 1.7 × 10^5 CFU/disc; microbial count of the biofilm on the hydroxyapatite discs compared with the placebo formulation ([17]; test period of 4 days): marked reduction
CCCCCCCCCCCCCCCCOc1cc(C(=O)O)cc(C(=O)O)c1 [III, 5-hexadecyloxy-isophthalic acid]	3.75	≦0.94	15	>48	12	>48	>48	24	24	24	>48	>48	>48	12	>48	>48	≦0.94	inhibition of the growth	1.88	>15	MIC (P. nigrescens ATCC33563): >15
